In PubChem BioAssay AID256 (DTP/NCI, 2004):
Several values for one entry are separate records, joined by “and”; a condition that tells them apart may be missing. Equal entries are not always repeated. Inconclusive results and toxic doses are left out. How the source made its calls: active means survival T/C of 150% or more; inactive means T/C below 125% in these data.

System: CD2F1 mice, L1210 leukemia ip, survival T/C
Assay: NCI In Vivo Anticancer Drug Screen. Data for tumor model L1210 Leukemia (intraperitoneal) in CD2F1 (CDF1) mice
Details: higher = longer survival
Outline: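 Tumor-bearing mice (transplanted tumor) were split into treated and vehicle control groups, and the measured endpoint of each treated group was divided by that of its vehicle controls.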

[1] = endpoint: mean survival time, dose: 100.0 mg/kg/injection, schedule: Q01DX001 (ip), vehicle: saline with Tween-80
[2] = endpoint: mean survival time, dose: 200.0 mg/kg/injection, schedule: Q01DX001 (ip), vehicle: saline with Tween-80
[3] = endpoint: mean survival time, dose: 400.0 mg/kg/injection, schedule: Q01DX001 (ip), vehicle: saline with Tween-80
[4] = endpoint: mean survival time, dose: 100.0 mg/kg/injection, schedule: Q04DX003 (ip), vehicle: saline with Tween-80
[5] = endpoint: mean survival time, dose: 100.0 mg/kg/injection, schedule: Q04DX003 (ip), vehicle: saline
[6] = endpoint: mean survival time, dose: 200.0 mg/kg/injection, schedule: Q04DX003 (ip), vehicle: saline with Tween-80

Measured: T/C

N=S(=O)(c1ccccc1)c1ccccc1
inactive: [1] 98 % of control | endpoint: mean survival time, dose: 100.0 mg/kg/injection, schedule: Q04DX002 (ip), vehicle: saline with Tween-80 110 % of control | [2] 94 % of control | endpoint: mean survival time, dose: 200.0 mg/kg/injection, schedule: Q04DX002 (ip), vehicle: saline with Tween-80 93 % of control | [3] 107 % of control

c1ccc2c(c1)CC1Nc3ccccc3C21 (stereo not given)
inactive: [1] 97 % of control | [2] 97 % of control | [3] 96 % of control

Cc1ccc(N)c(Br)c1
inactive: endpoint: mean survival time, dose: 25.0 mg/kg/injection, schedule: Q04DX003 (ip), vehicle: saline 111 % of control | endpoint: mean survival time, dose: 50.0 mg/kg/injection, schedule: Q04DX003 (ip), vehicle: saline 100 % of control | [4] 92 % of control | [5] 98 % of control and 100 % of control | [6] 98 % of control

CCN(CC)C(=O)c1ccc[n+](Cc2ccc(Cl)cc2)c1
inactive: [5] 102 % of control

CC(CNC1CCCCC1)OC(=O)c1ccc(N)cc1 (stereo not given)
inactive: endpoint: mean survival time, dose: 75.0 mg/kg/injection, schedule: Q01DX001 (ip), vehicle: saline 102 % of control

CC1(C)OC2C(/C=N/O)OC(n3ccc(=O)[nH]c3=O)C2O1 (stereo not given)
inactive: endpoint: median survival time, dose: 23.13 mg/kg/injection, schedule: Q01DX005 (ip), vehicle: Klucel (hydroxypropylcellulose) (HPC) 107 % of control | endpoint: median survival time, dose: 46.25 mg/kg/injection, schedule: Q01DX005 (ip), vehicle: Klucel (hydroxypropylcellulose) (HPC) 102 % of control | endpoint: median survival time, dose: 92.5 mg/kg/injection, schedule: Q01DX005 (ip), vehicle: Klucel (hydroxypropylcellulose) (HPC) 102 % of control | endpoint: median survival time, dose: 185.0 mg/kg/injection, schedule: Q01DX005 (ip), vehicle: Klucel (hydroxypropylcellulose) (HPC) 108 % of control

CN=C(NC)c1cccc(NC(=O)/C=C\c2ccc(/C=C/C(=O)Nc3cccc(C(=NC)NC)c3)cc2)c1
inactive: endpoint: median survival time, dose: 1.25 mg/kg/injection, schedule: Q01DX009 (ip), vehicle: saline 101 % of control | endpoint: median survival time, dose: 2.5 mg/kg/injection, schedule: Q01DX009 (ip), vehicle: saline 107 % of control | endpoint: median survival time, dose: 5.0 mg/kg/injection, schedule: Q01DX009 (ip), vehicle: saline 101 % of control

Cc1cc2c(=O)c(C)c[nH]c2cc1Cl
inactive: endpoint: mean survival time, dose: 50.0 mg/kg/injection, schedule: Q01DX009 (ip), vehicle: Klucel (hydroxypropylcellulose) (HPC) 89 % of control | endpoint: mean survival time, dose: 100.0 mg/kg/injection, schedule: Q01DX009 (ip), vehicle: Klucel (hydroxypropylcellulose) (HPC) 86 % of control

Cc1ccc([N+](=O)[O-])cc1NC(=O)COc1ccc(Cl)cc1
inactive: [4] 98 % of control | [6] 94 % of control | endpoint: mean survival time, dose: 400.0 mg/kg/injection, schedule: Q04DX003 (ip), vehicle: saline with Tween-80 90 % of control

O=c1c2ccccc2sc2ccc3c(ccc4sc5ccccc5c(=O)c43)c12
inactive: [1] 93 % of control | [2] 100 % of control | [3] 92 % of control
